The results in this text go back to patent publication US20220349875A1, “METHOD TO INDEPENDENTLY ANALYZE MULTIPLE BIOLOGICAL PROCESSES IN ENCAPSULATED 3D CELL CO-CULTURES” (UNIVERSITÉ DE GENÈVE, priority 2019, published 2022).

In test [1] the test system is BC cells stably expressing the reporter zipGFP-Casp3. In words: Apoptosis of encapsulated BC cells (zipGFP-Casp3 reporter), monoculture or multi-culture with LC cells. The class given is cell-based. The note with it: micromolar Tamoxifen (1 μM to 10 μM), 96 hours, with vs without LC cells; FIG. 4.
Method: Image acquisition was performed with an automated confocal microscope. Cell segmentation and quantification of cell fluorescence intensities were performed with the software MetaXpress (Molecular Devices). For the quantification of apoptosis, cell fluorescence intensities from far-red-labelled capsules were measured and the green fluorescence was normalized with the red fluorescence. […] Data is representative of 3 independent replicates.
Dispense capsules in wells of a 96-well imaging quality plate by continuously pipetting up and down to maintain the capsules in suspension before transferring the proper volume into the well.
Half of wells are not filled with LC capsules (conditions with BC cells only)
Incubate the plate at 37° C. for 96 hours.
In test [2] the test system is BC cells stably expressing the dual-reporter FUCCI. Nature of the test: Proliferation of encapsulated BC cells (FUCCI dual reporter), monoculture or multi-culture with LC cells. The class given is cell-based. The note with it: micromolar Tamoxifen (1 μM to 10 μM), 96 hours; FIG. 5. The source says:
LC cells were encapsulated in green-labelled alginate capsules, BC cells stably expressing the dual reporter gene FUCCI (active proliferating cells are green, not-proliferating cells (latent) are red) were encapsulated in unlabelled alginate capsules, and BC cells stably expressing the reporter gene zipGFP-Casp3 (all cells are red (reporter expression control) and cells become green upon apoptosis induction) were encapsulated in far-red-labelled alginate capsules. […] Image acquisition was performed with an automated confocal microscope. Cell segmentation and quantification of cell fluorescence intensities were performed with the software MetaXpress (Molecular Devices). For the quantification of proliferation, cell fluorescence intensities from unlabelled capsules were measured. […] Data is representative of 3 independent replicates.
Induction of apoptosis is measured by automated confocal microscopy (HCS) in BC cells stably expressing the reporter zipGFP-Casp3 and proliferation is measured at the same time in BC cells stably expressing the dual-reporter FUCCI. […]

With `CC/C(=C(\c1ccccc1)c1ccc(OCCN(C)C)cc1)c1ccccc1` [Tamoxifen], in test [1], the “induction of apoptosis in BC cells” value was “increased by Tamoxifen in a dose-dependent manner only in co-culture with LC cells”. Also, in test [2], the cell proliferation inhibition entry is “already maximal at 1 μM”.
